Assay [1] addresses T1, rASIC1a (Rattus norvegicus, UniProt P55926).
T1 construct: expressed in transfected cells; host or cells: Xenopus laevis oocytes (cRNA injection)
T1 sequence (P55926 1-526): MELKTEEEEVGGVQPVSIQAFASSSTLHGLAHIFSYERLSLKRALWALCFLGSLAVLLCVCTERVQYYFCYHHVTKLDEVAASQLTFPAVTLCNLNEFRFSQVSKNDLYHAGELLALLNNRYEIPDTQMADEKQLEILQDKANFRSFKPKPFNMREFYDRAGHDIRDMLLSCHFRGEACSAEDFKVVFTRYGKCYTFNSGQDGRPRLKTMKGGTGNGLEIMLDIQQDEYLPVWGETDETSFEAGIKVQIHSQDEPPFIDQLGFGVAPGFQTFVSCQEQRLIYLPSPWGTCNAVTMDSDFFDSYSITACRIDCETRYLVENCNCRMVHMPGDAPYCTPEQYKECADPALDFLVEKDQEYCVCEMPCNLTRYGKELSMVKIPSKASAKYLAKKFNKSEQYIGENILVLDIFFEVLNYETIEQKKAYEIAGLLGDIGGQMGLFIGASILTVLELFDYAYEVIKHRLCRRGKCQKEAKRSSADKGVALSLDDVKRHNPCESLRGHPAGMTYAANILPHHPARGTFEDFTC
Put plainly: TEVC in Xenopus laevis oocytes expressing rASIC1a. Format: cell-based. Particulars: for inhibition of currents at 300 nM: 300 nM peptide; for increase in IC50 (loss of potency) relative to wild-type Ma-3: peptides applied at pH 7.45, stimulated at pH 6. The method, then:
Two-electrode voltage-clamp (TEVC) experiments using Xenopus laevis oocytes were conducted as previously described. Briefly, oocytes were surgically removed from anaesthetised female frogs, then treated with collagenase (~ 1 mg/ml, Sigma type I) for 2 h under agitation at room temperature. cRNAs were synthesised using a mMessage mMachine T7 or SP6 transcription kit (Thermo Fisher Scientific Australia Pty Ltd, Scoresby, VIC, Australia) and injected into healthy stage V–VI oocytes at 0.2–20 ng per cell. Different amounts of RNA were used for different wild-type and mutant constructs, as well as to titrate expression levels to record over multiple days and maintaining consistent expression levels. Injected oocytes were incubated at 17 °C for 1–7 days in 50% Leibovitz’s L-15 medium (Gibco, Thermo Fisher Scientific Australia Pty Ltd, Scoresby, VIC, Australia), supplemented with 25 µg/mL gentamicin, 25 µg/mL streptomycin, and 2.5% fetal horse serum. Membrane currents were recorded 2–7 days after cRNA-injection under voltage-clamp at -60 mV (Axon Axoclamp 900 A, Molecular Devices, CA, USA) using two standard glass microelectrodes of 0.5–1 MΩ resistance when filled with 3 M KCl solution. Data were sampled at 2 kHz and filtered at 0.1 kHz using Clampex 10 software (Molecular Devices, CA, USA). A microperfusion system was used to allow fast extracellular solution exchange (bath volume = ~ 30 µL). All experiments were performed at room temperature (18–23 °C) in ND96 (96 mM NaCl, 2 mM KCl, 1.8 mM CaCl2, 2 mM MgCl2, 5 mM HEPES, pH 7.45). In solutions below pH 6.8, HEPES was replaced by MES. All solutions containing peptides contained 0.05% fatty acid free bovine serum albumin to decrease adsorptive losses of peptide to plasticware. For all channels tested, control current magnitudes between 500 and 9000 nA when tested using a conditioning pH of 7.45 and stimulating pH of 6 (except for the chimeras that were stimulated with pH 5) were used for data collection. Before recording any experiments, oocytes were stimulated multiple times with low pH to minimise and stabilise tachyphylaxis/desensitisation, which were then accounted for during analysis. Complete recovery of currents from Ma-3 induced modulation within 3 min of washout at all channels tested allowed for correction for tachyphylaxis/desensitisation during analyses.
Specific to this work, the standard protocol was for oocytes to be conditioned at pH 7.45 and channels stimulated every 60 s using a 5 s pH 5 or 6 application, unless stated otherwise. For all concentration-response data, peptides were applied for ~ 50 s between each low pH stimulus application. Activation curves were determined by conditioning oocytes at pH 8 (Fig. 2e − g; and Fig. 5a and b) or 7.45 (Fig. 6; and Supplementary Fig. 2d and c) for 55 s and applying low pH stimuli from 7.25 to 5.0 for 5 s. Steady-state desensitisation (SSD) was determined by applying conditioning solutions of pH values from 8 to 6 for 115 s prior to stimulation by a pH drop to 5 for 5 s. Ma-3 was only applied in the conditioning solution for activation and steady-state desensitisation curves in the presence of peptide. Control pH-dependence curves were determined in the absence of any Ma-3. When assessing the effect of Ma-3 on the rASIC1a: ASIC1b chimeras (C92 and C166; and for the comparative wild-type data), the conditioning pH was 7.45 and stimulating pH 5 (Fig. 3b). Specific details of the conditioning and stimulating pH are noted in each figure legend.
Data were analysed using pCLAMP-Clampfit software (Version 11, Molecular Devices, CA, USA) and GraphPad Prism 9.5 and 10.2.2 (GraphPad Software, San Diego, CA, USA). To obtain the Hill coefficient (nH) and half-maximal response (EC50, IC50, or pH50) the Hill equation was fitted to normalised concentration-response curves by using a non-linear fit to the data of a four-parameter logistic equation (“sigmoidal dose-response” in GraphPad Prism 9.5). […]

For assay [2], the system named is rASIC1a N291A. Put plainly: TEVC oocytes, rASIC1a N291A mutant. Particulars: concentration-response, conditioning pH 7.45, stimulating pH 6. Format: cell-based, rat. The method, then: (§1) Two-electrode voltage-clamp (TEVC) experiments using Xenopus laevis oocytes were conducted as previously described. Briefly, oocytes were surgically removed from anaesthetised female frogs, then treated with collagenase (~ 1 mg/ml, Sigma type I) for 2 h under agitation at room temperature. cRNAs were synthesised using a mMessage mMachine T7 or SP6 transcription kit (Thermo Fisher Scientific Australia Pty Ltd, Scoresby, VIC, Australia) and injected into healthy stage V–VI oocytes at 0.2–20 ng per cell. […] Membrane currents were recorded 2–7 days after cRNA-injection under voltage-clamp at -60 mV (Axon Axoclamp 900 A, Molecular Devices, CA, USA) using two standard glass microelectrodes of 0.5–1 MΩ resistance when filled with 3 M KCl solution. […]
(§2) Specific to this work, the standard protocol was for oocytes to be conditioned at pH 7.45 and channels stimulated every 60 s using a 5 s pH 5 or 6 application, unless stated otherwise. […] Activation curves were determined by conditioning oocytes at pH 8 (Fig. 2e − g; and Fig. 5a and b) or 7.45 (Fig. 6; and Supplementary Fig. 2d and c) for 55 s and applying low pH stimuli from 7.25 to 5.0 for 5 s. Steady-state desensitisation (SSD) was determined by applying conditioning solutions of pH values from 8 to 6 for 115 s prior to stimulation by a pH drop to 5 for 5 s. […] Control pH-dependence curves were determined in the absence of any Ma-3. […]

The target of assay [3] is T2, rASIC1b N324K (Rattus norvegicus, UniProt P55926, N291K).
T2 construct: expressed in transfected cells; host or cells: Xenopus laevis oocytes injected with cRNA
T2 sequence (P55926 1-559 isoform P55926-3 N324K): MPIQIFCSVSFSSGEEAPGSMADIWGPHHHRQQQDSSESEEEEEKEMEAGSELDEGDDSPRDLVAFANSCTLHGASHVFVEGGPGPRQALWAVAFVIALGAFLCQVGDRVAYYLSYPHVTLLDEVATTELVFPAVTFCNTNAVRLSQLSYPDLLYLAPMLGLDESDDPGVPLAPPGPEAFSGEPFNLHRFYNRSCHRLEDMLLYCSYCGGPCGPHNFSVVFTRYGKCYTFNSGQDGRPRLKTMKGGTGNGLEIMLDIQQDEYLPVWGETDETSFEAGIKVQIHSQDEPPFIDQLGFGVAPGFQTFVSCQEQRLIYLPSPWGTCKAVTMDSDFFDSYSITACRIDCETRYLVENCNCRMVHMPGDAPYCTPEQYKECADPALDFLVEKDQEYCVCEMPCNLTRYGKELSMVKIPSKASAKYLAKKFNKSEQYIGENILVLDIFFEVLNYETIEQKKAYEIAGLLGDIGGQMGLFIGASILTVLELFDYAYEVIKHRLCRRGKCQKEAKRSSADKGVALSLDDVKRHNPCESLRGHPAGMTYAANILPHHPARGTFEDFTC
Put plainly: TEVC oocytes, rASIC1b N324K mutant. Format: cell-based. Particulars: 300 nM Ma-3, conditioning pH 7.45; Hill fit, n = 5–6. The method, then:
as §1, §2

Setting [4] is: conditioning pH 7.45, stimulating pH 6.

This note sets out measurements from publication PMC11335189, “Revealing molecular determinants governing mambalgin-3 pharmacology at acid-sensing ion channel 1 variants” (Cellular and Molecular Life Sciences: CMLS, 2024).

Positions of bridges follow the written chain, without caps; N, C: chain ends. No end group written: not given here.

Regarding “H-SLKCYQHGAVVTCHRDMKFCYHNIGMPFRNLKLILQGCSSSCSETENNKCCSTDRCNK (disulfide 4-20, 13-38, 42-50, 51-56 (inferred)) [K8A]”, in assay [1] (setting [4]), the “inhibition of currents at 300 nM” value is “strongly inhibit”. In addition, in assay [1], the “increase in IC50 (loss of potency) relative to wild-type Ma-3” value is ~ 4 fold.

“H-SLKCYQHGKVVTCHRDAKFCYHNIGMPFRNLKLILQGCSSSCSETENNKCCSTDRCNK (disulfide 4-20, 13-38, 42-50, 51-56 (inferred)) [M16A]”: in assay [1] (setting [4]), the “inhibition of currents at 300 nM” value is listed as “strongly inhibit”. The “increase in IC50 (loss of potency) relative to wild-type Ma-3” value in assay [1] is on record as “no change”.

Turning to “H-SLKCYQHGKVVTCHRDMKFCYHNIGMPFRNLKLILQGCSSSCSETENNKCCSTDRCNK (disulfide 4-20, 13-38, 42-50, 51-56 (inferred)) [Ma-3, mambalgin-3]”, the “t1/2 of onset of inhibition” value in assay [1] (30 nM Ma-3 (~ 10 times the IC50) applied at pH 7.45 for different durations, single exponential fit, n = 6) came out at 6.5 s. In addition, the “time of Ma-3 application to maximal inhibition” value in assay [1] (30 nM Ma-3 at pH 7.45) is on record as at most 45 s. The “shift of the activation curve towards more acidic values” in assay [1] (100 nM Ma-3, conditioning pH 8) is 0.48 pH units. Also, the “slope of activation curve in presence of Ma-3” value in assay [1] (100 nM Ma-3, conditioning pH 8, mean ± SEM) is on record as 1.29 ± 0.67. Also, the “alkaline shift in the SSD curve” value in assay [1] (100 nM Ma-3, stimulating pH 5) stood at 0.08 pH units. Further, the “slope of SSD curve in presence of Ma-3” value in assay [1] (100 nM Ma-3, stimulating pH 5, mean ± SEM) was 7.09 ± 1.34. In addition, the “pH50 of activation in presence of Ma-3” value is listed as 5.72 ± 0.23 in assay [1] (100 nM Ma-3 in conditioning solution, conditioning pH 8, Hill fit, mean ± SEM, n = 5–8); 5.60 in assay [1] (100 nM Ma-3 in the pH 8 conditioning solution, Hill fit (Supplementary Table 7), n = 5–6); 6.21 in assay [3]. In addition, in assay [1] (100 nM Ma-3 in conditioning solution, stimulating pH 5, Hill fit, mean ± SEM, n = 5–8), the “pH50 of steady-state desensitisation (SSD) in presence of Ma-3” value amounted to 7.42 ± 0.04. Also, the “inhibition of currents at 300 nM” value in assay [1] (setting [4]) is listed as “strongly inhibit”. Moreover, the “fold more potent inhibition of rASIC1a than rASIC1b” value in assay [1] (IC50 ratio, conditioning pH 7.45, stimulating pH 6) was ~ 10 fold. The “t1/2 of recovery of currents from inhibition (washout)” value in assay [1] (after 30 nM Ma-3, pH 7.45 conditioning, single exponential fit, n = 6) is on record as 21.6 s. In addition, the “inhibition at saturating Ma-3 concentrations” value in assay [1] (setting [4]) is “completely inhibited”. Moreover, the “effect of channel mutation on Ma-3 potency” value in assay [2] was “had no effect on potency”.
